Test results taken from ChEMBL document CHEMBL1781929, “Novel benzo[b]thiophene derivatives as new potential antidepressants with rapid onset of action” (J Med Chem, 2011).
Active and inactive are the calls of the source. The calls are words filed in the database; no cut-off is given here.

Legend:
[1] = molecular target: Sodium-dependent serotonin transporter (Rattus norvegicus) (UniProt P31652); assay: Displacement of [3H]5-HT from of SERT in rat midbrain homogenates at 1 uM after 5 mins by scintillation counting; assay type: tissue-based
[2] = molecular target: T1, 5-hydroxytryptamine receptor 7 (Homo sapiens, UniProt P34969); assay: Displacement of [3H]5-CT from human 5HT7 receptor expressed in HEK293 cells after 1 hr by liquid scintillation counting; assay type: cell-based
[3] = molecular target: Sodium-dependent serotonin transporter (Rattus norvegicus) (UniProt P31652); assay: Displacement of [3H]5-HT from of SERT in rat midbrain homogenates at 10 uM after 5 mins by scintillation counting; assay type: tissue-based
[4] = molecular target: T1, 5-hydroxytryptamine receptor 7; assay: Antagonist activity at human 5HT7 receptor expressed in HEK293 cells assessed as inhibition of serotonin-induced cAMP production after 20 mins; assay type: functional, cell-based
[5] = molecular target: T1, 5-hydroxytryptamine receptor 7; assay: Inverse agonist activity at human 5HT7 receptor expressed in HEK293 cells assessed as effect on cAMP production after 20 mins; assay type: functional, cell-based
Mus musculus [6] = assay: Antidepressant activity in albino mouse assessed as reduction of immobility time at 10 mg/kg, ip qd for 15 days by forced swimming test; assay type: functional, organism-based; set-up: dose 10 mg/kg
[7] = molecular target: Sodium-dependent serotonin transporter (Rattus norvegicus, UniProt P31652); assay: Displacement of [3H]5-HT from of SERT in rat midbrain homogenates after 5 mins by scintillation counting; assay type: tissue-based
[8] = molecular target: T2, 5-hydroxytryptamine receptor 1A (Homo sapiens, UniProt P08908); assay: Binding affinity to 5HT1A receptor
T2 sequence (P08908 whole entry): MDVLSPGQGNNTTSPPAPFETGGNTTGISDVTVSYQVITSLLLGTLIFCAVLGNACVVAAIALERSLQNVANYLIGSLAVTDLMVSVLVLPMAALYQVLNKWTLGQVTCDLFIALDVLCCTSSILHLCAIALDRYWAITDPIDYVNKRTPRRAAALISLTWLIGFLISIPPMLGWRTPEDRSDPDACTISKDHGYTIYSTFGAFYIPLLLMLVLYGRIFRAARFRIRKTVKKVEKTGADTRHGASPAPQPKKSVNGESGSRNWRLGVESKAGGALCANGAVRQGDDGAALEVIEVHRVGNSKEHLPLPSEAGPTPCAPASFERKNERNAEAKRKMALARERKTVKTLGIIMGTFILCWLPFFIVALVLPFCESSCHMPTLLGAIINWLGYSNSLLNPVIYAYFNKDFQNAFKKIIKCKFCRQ

Mus musculus [9] = assay: Toxicity in albino mouse assessed as increase in locomotor activity at 10 mg/kg, ip; assay type: organism-based; set-up: dose 10 mg/kg, route intraperitoneal; details: in vivo
[10] = molecular target: T1, 5-hydroxytryptamine receptor 7; assay: Partial agonist activity at human 5HT7 receptor expressed in HEK293 cells assessed as effect on cAMP production after 20 mins; assay type: functional, cell-based
Mus musculus [11] = assay: Antidepressant activity in albino mouse assessed as reduction of immobility time at 20 mg/kg, ip qd for 15 days by forced swimming test; assay type: functional, organism-based; set-up: dose 20 mg/kg
Mus musculus [12] = assay: Antidepressant activity in albino mouse assessed as reduction of immobility time at 10 to 20 mg/kg, ip measured up to 4 mins by forced swimming test; assay type: functional, organism-based
Mus musculus [13] = assay: Antidepressant activity in albino mouse assessed as reduction of immobility time at 10 mg/kg, ip measured for 4 mins by forced swimming test; assay type: functional, organism-based; set-up: dose 10 mg/kg
[14] = molecular target: T1, 5-hydroxytryptamine receptor 7; assay: Partial antagonist activity at human 5HT7 receptor expressed in HEK293 cells assessed as inhibition of serotonin-induced cAMP production after 20 mins; assay type: functional, cell-based

Chain of Sodium-dependent serotonin transporter (P31652 whole entry): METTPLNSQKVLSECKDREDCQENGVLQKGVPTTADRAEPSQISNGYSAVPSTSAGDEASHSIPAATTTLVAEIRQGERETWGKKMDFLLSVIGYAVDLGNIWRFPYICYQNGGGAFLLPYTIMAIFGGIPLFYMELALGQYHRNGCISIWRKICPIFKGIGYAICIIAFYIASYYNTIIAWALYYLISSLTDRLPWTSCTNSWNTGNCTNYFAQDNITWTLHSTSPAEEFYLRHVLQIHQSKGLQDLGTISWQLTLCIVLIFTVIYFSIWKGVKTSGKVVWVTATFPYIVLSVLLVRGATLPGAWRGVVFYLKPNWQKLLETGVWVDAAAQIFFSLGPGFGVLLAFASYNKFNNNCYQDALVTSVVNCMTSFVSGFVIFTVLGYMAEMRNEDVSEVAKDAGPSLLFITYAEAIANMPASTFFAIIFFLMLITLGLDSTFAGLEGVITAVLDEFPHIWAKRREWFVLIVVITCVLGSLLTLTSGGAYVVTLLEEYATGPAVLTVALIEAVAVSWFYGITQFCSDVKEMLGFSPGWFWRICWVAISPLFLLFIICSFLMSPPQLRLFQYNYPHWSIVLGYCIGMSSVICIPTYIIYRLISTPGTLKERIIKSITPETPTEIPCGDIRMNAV
Chain of Sodium-dependent serotonin transporter (Rattus norvegicus) (P31652 whole entry): as above
T1 sequence (P34969 whole entry): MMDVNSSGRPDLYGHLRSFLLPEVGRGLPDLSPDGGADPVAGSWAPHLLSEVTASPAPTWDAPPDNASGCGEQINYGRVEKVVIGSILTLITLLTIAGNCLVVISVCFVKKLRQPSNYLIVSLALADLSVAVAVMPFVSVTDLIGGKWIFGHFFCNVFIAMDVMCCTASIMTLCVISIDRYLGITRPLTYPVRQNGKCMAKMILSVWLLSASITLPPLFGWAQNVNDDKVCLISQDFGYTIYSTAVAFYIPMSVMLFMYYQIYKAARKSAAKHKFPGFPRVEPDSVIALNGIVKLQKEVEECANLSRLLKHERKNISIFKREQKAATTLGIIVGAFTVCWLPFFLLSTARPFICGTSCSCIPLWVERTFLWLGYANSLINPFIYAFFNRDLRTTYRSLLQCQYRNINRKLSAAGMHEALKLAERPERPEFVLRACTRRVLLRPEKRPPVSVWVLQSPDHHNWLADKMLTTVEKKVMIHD

| Structure (SMILES) | inhibition [1] | Ki [2] | inhibition [3] | further results |
| --- | --- | --- | --- | --- |
| N#Cc1ccc(N2CCCN(CCC(=O)c3csc4ccccc34)CC2)cc1 | 1.2% | 15.1 µM | 63.1% | – |
| N#Cc1ccc(N2CCN(CCC(O)c3csc4ccccc34)CC2)cc1 (stereo unspecified) | 43.5% | 12.6 µM | 57.7% | Activity [4]: Active; Activity [5]: Active |
| O=C(CCN[C@@H]1CCN(c2ccc([N+](=O)[O-])cc2)C1)c1csc2ccccc12 | 9% | > 100 µM | 45.4% | – |
| O=C(CCN1CCCN(c2ccc([N+](=O)[O-])cc2C(F)(F)F)CC1)c1csc2ccccc12 | – | > 100 µM | – | – |
| O=C(CCN[C@H]1CCN(c2ccc([N+](=O)[O-])cc2C(F)(F)F)C1)c1csc2ccccc12 | 28.4% | > 100 µM | 97.9% | Activity (Mus musculus [6]): Active; IC50 [7]: 7.02 µM; Ki [8]: 50.1 nM; Activity (Mus musculus [9]): Non-toxic |
| O=C(CCNC1CCN(c2ccc([N+](=O)[O-])cc2C(F)(F)F)CC1)c1csc2ccccc12 | 26.9% | 9.12 µM | 62.8% | Activity [10]: Active; Activity [4]: Active |
| CNCCC(Oc1ccc(C(F)(F)F)cc1)c1ccccc1 (stereo unspecified) | – | – | – | Activity (Mus musculus [11]): Active; Activity (Mus musculus [12]): inactive |
| O=C(CCN1CCN(c2ccc([N+](=O)[O-])cc2)CC1)c1csc2ccc(F)cc12 | 0% | 91.2 µM | 16.3% | – |
| OC(CCN1CCC(N2CCOCC2)CC1)c1csc2ccccc12 (stereo unspecified) | 2.2% | 27.5 µM | 63.6% | – |
| N#Cc1ccc(N2CCCN(CCC(O)c3csc4ccccc34)CC2)cc1 (stereo unspecified) | 19.7% | 0.263 µM | 36.7% | Activity [4]: Active; Activity (Mus musculus [13]): Active; Activity (Mus musculus [6]): Active; Activity [5]: Active; IC50 [7]: 57.8 µM; Ki [8]: 3160 nM; Activity (Mus musculus [9]): Non-toxic |
| Nc1ccc(N2CCN(CCC(=O)c3csc4ccccc34)CC2)cc1 | – | 14.1 µM | – | – |
| N#Cc1ccc(N2CCC(NCCC(=O)c3csc4ccccc34)CC2)cc1 | – | 7.24 µM | – | Activity [10]: Active |
| N#Cc1ccc(N2CC[C@H](NCCC(=O)c3csc4ccccc34)C2)cc1 | 0% | > 100 µM | 45.6% | – |
| O=C(CCNC1CCN(c2ccc([N+](=O)[O-])cc2)CC1)c1csc2ccc(F)cc12 | 3.1% | 4.79 µM | 35% | Activity [4]: Active; Activity [14]: Active |
| O=C(CCN[C@H]1CCN(c2ccc([N+](=O)[O-])cc2)C1)c1csc2ccccc12 | 0% | > 100 µM | 36.6% | – |
| N#Cc1ccc(N2CCC(NCCC(O)c3csc4ccccc34)CC2)cc1 (stereo unspecified) | 53.1% | 1.66 µM | 80.4% | Activity (Mus musculus [6]): Active; Activity [5]: Active; IC50 [7]: 3.66 µM; Ki [8]: 158 nM; Activity (Mus musculus [9]): Non-toxic |
| O=[N+]([O-])c1ccc(N2CCCN(CCC(O)c3csc4ccccc34)CC2)c(C(F)(F)F)c1 (stereo unspecified) | 0% | 8.71 µM | 36% | Activity [10]: Active |
| O=C(CCN1CCN(c2ccc([N+](=O)[O-])cc2)CC1)c1csc2ccccc12 | 2.1% | > 100 µM | 33.2% | – |
| O=C(CCN1CC[C@@H](Nc2ccc([N+](=O)[O-])cc2)C1)c1csc2ccccc12 | 17.9% | > 100 µM | 76.5% | – |
| O=[N+]([O-])c1ccc(N2CCC(NCCC(O)c3csc4ccccc34)C2)cc1 (single isomer, unassigned) | 28.1% | > 100 µM | 49.2% | – |
| N#Cc1ccc(N2CCN(CCC(=O)c3csc4ccccc34)CC2)cc1 | 5.4% | > 100 µM | 38.2% | – |
| O=C(CCN1CCC(N2CCOCC2)CC1)c1csc2ccccc12 | 11.1% | 53.7 µM | 30.2% | – |
| O=C(CCN1CCCN(c2cnc3ccccc3n2)CC1)c1csc2ccccc12 | 23.8% | 9.55 µM | 58% | – |
